Reference: ChEMBL document CHEMBL1132837, “3-(4-Piperidinyl)- and 3-(8-aza-bicyclo[3.2.1]oct-3-yl)-2-phenyl-1H-indoles as bioavailable h5-HT2A antagonists” (Bioorg Med Chem Lett, 2000)

Experiments:
[1] = molecular target: 5-hydroxytryptamine receptor 2A (Homo sapiens, UniProt P28223); test: Displacement of [3H]ketanserin from human 5-hydroxytryptamine 2A receptor expressed in CHO cells; type: cell-based
[2] = molecular target: Dopamine D2 receptor and serotonin 2a receptor (Homo sapiens) (UniProt P14416+P28223); test: Selectivity as ratio of Ki against human dopamine D2 and 5-HT2A receptors; type: protein assay
Dopamine D2 receptor and serotonin 2a receptor (Homo sapiens), sequence (P14416 whole entry, looked up): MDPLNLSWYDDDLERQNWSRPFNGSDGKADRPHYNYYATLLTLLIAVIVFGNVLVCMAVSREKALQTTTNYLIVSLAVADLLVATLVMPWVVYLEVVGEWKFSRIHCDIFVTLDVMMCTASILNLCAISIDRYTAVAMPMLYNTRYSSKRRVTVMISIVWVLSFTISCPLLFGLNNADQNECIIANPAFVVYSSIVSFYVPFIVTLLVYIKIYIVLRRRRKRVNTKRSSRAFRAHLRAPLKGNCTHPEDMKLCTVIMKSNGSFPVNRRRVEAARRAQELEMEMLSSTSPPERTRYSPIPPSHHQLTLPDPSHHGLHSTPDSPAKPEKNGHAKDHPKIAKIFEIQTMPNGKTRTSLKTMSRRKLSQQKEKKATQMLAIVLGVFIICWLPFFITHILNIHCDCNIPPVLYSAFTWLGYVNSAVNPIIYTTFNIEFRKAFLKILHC
Dopamine D2 receptor and serotonin 2a receptor (Homo sapiens), sequence (P28223 whole entry, looked up): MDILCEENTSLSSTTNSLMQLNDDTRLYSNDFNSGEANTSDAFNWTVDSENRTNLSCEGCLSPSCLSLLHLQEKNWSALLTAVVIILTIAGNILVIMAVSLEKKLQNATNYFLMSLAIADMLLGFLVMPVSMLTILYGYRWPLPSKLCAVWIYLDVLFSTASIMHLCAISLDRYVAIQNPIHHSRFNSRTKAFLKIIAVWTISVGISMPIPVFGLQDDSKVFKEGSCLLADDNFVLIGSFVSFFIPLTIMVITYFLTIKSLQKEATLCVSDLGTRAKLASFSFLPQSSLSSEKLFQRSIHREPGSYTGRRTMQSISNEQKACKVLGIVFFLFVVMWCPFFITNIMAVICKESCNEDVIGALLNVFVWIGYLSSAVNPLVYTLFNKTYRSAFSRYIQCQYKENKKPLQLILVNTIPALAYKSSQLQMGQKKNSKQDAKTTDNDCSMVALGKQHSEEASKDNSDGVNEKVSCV

[3] = molecular target: Serotonin 2 receptors; 5-HT2a & 5-HT2c (Homo sapiens) (UniProt P28223+P28335); test: Selectivity as ratio of Ki against human 5-HT2C and 5-HT2A receptors; type: protein assay
Serotonin 2 receptors; 5-HT2a & 5-HT2c (Homo sapiens), sequence (P28223 whole entry, looked up): as above
Serotonin 2 receptors; 5-HT2a & 5-HT2c (Homo sapiens), sequence (P28335 whole entry, looked up): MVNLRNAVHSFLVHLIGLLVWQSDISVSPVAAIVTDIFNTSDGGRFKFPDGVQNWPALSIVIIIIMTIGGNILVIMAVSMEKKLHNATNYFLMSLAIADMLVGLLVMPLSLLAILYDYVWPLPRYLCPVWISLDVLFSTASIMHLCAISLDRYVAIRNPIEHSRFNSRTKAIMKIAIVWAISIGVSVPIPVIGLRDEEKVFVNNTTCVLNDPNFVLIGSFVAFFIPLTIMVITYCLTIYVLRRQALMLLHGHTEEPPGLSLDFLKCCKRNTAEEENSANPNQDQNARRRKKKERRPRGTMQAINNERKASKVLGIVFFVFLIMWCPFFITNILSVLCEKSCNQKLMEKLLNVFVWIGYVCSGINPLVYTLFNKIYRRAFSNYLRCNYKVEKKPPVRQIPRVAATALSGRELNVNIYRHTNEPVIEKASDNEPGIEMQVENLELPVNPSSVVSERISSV

[4] = Oral bioavailability was determined in dogs; type: ADME, organism-based, Canis lupus familiaris; conditions: dog, in vivo, read-out: Bioavailabiility
[5] = Oral bioavailability in rat; type: ADME, organism-based; conditions: in vivo

5-hydroxytryptamine receptor 2A, sequence (P28223 whole entry): as the sequence (P28223 whole entry, looked up) above

Row | SMILES | Ki [1] [nM] | Ratio [2] | Ratio [3] | bioavailability [4] [%] | bioavailability [5] [%]
1 | O=C1NCCN1CCN1CCC(c2c(-c3ccccc3)[nH]c3ccccc23)CC1 | 7.3 | 250 | 160 | 33 | 40
2 | c1ccc(CCN2C3CCC2CC(N2CCC(c4c(-c5ccccc5)[nH]c5ccccc45)CC2)C3)cc1 (stereo in doubt; 18) [listing 1 of 2 here] |  | 170 | 60 |  | 
3 | c1ccc(CCN2CCC(c3c(-c4ccccc4)[nH]c4ccccc34)CC2)cc1 | 0.5 | 690 | 160 |  | 12
4 | CN1[C@@H]2CC[C@H]1C[C@H](N1CCC(c3c(-c4ccccc4)[nH]c4ccccc34)CC1)C2 (stereo in doubt; 13) [listing 1 of 2 here] |  | 1190 | 70 |  | 
5 | c1ccc(CCN2C3CCC2CC(N2CCC(c4c(-c5ccccc5)[nH]c5ccccc45)CC2)C3)cc1 (stereo in doubt; 17) [listing 1 of 2 here] | 1.2 |  |  |  | 18
6 | CN1[C@@H]2CC[C@H]1C[C@H](N1CCC(c3c(-c4ccccc4)[nH]c4ccccc34)CC1)C2 (stereo in doubt; 15) [listing 1 of 2 here] | 1.5 |  |  |  | 
7 | CN1CCC(c2c(-c3ccccc3)[nH]c3ccccc23)CC1 | 7.8 | 205 | 30 |  | 
8 | c1ccc(CN2CCC(c3c(-c4ccccc4)[nH]c4ccccc34)CC2)cc1 | 28 | 2 | 30 |  | 
9 | c1ccc(CCN2C3CCC2CC(N2CCC(c4c(-c5ccccc5)[nH]c5ccccc45)CC2)C3)cc1 (stereo in doubt; 17) [listing 2 of 2 here] |  | 1080 | 860 |  | 
10 | c1ccc(-c2[nH]c3ccccc3c2CCN2CCCCC2)cc1 |  | 330 | 100 |  | < 5
11 | c1ccc(-c2[nH]c3ccccc3c2C2CCNCC2)cc1 | 12.1 | 130 | 30 |  | 
12 | CN1[C@@H]2CC[C@H]1C[C@H](N1CCC(c3c(-c4ccccc4)[nH]c4ccccc34)CC1)C2 (stereo in doubt; 15) [listing 2 of 2 here] |  | 960 | 45 |  | 
13 | CN1[C@@H]2CC[C@H]1C[C@H](N1CCC(c3c(-c4ccccc4)[nH]c4ccccc34)CC1)C2 (stereo in doubt; 13) [listing 2 of 2 here] | 1.1 |  |  |  | 
14 | c1ccc(CCN2C3CCC2CC(N2CCC(c4c(-c5ccccc5)[nH]c5ccccc45)CC2)C3)cc1 (stereo in doubt; 18) [listing 2 of 2 here] | 2.6 |  |  |  | 
15 | c1ccc(-c2[nH]c3ccccc3c2C2CC3CCC(C2)N3)cc1 (configuration not stated) | 1.8 | 1060 | 200 |  | 
